We go through 18 molecules from PMC12809313, “New Sulfonate-Semicarbazone Hybrid Molecules: Synthesis, Theoretical Evaluations, Molecular Simulations, and Butyrylcholinesterase Inhibition Activity” (ACS Omega, 2025).

“And” between values parts separate entries of the source, which are not always exact repeats. Identical values can stand only once. A value given as a limit tells only on which side of the number the result lay.

By IC50 is commonly meant the concentration needed to halve the response being measured. A high value points to weaker potency.

Test [1] concerns the target T1, butyrylcholinesterase (BChE) (Homo sapiens, UniProt P06276). Nature of the test: In vitro BChE inhibition (Ellman's technique). The note with it: Ellman assay, five concentrations, triplicate. The class given is biochemical. Here is the method: The semicarbazone derivatives were evaluated for their inhibitory activities against human acetylcholinesterase (AChE) and butyrylcholinesterase (BChE) enzymes using standard in vitro assays. The Ellman’s technique that was tailored to our lab’s needs was used to measure the activity of the cholinesterase enzyme. The test chemicals were first dissolved in DMSO at a concentration of 1 mg/mL to create stock solutions, which were then diluted 10 times with distilled water for use in the inhibition tests. Each compound’s inhibitory effects on the enzymes were evaluated at five different concentrations. Fifty microliters of distilled water, 50 μL of 0.1 M Tris–HCl buffer (pH 8.0), 15 μL of 0.015 M […] (as substrates), 30 μL of 0.06 M DTNB (5,5′-dithiobis(2-nitrobenzoic acid)), and 10 μL of enzyme solution made up the reaction mixture for the AChE and BChE tests. The absorbance of the blank solutions was measured before the substrate was added. The substrate was then added to each well to start the enzymatic reaction. Enzyme activity was kinetically assessed at 408 nm by using a microplate reader. Each inhibition measurement was repeated three times, and average values were taken when measuring the inhibitory potentials of the molecules. The IC50 values, indicating each compound’s inhibitory strength against cholinesterase, were determined by plotting percent activity versus inhibitor concentration.

Test [2] has as its target T1, butyrylcholinesterase (BChE). The test can be described thus: BChE enzyme kinetics (Lineweaver–Burk plots). It is filed as biochemical. Particulars: for inhibition type: Lineweaver–Burk plots; for Ki: substrate butyrylthiocholine iodide, Lineweaver–Burk, read-out: inhibition constant (K i). Here is the method: The enzymatic activity of BChE was evaluated at various concentrations of the substrate butyrylthiocholine iodide (BTChI) in the presence of fixed concentrations of each inhibitor. The resulting data were analyzed by Lineweaver–Burk double reciprocal plots to determine kinetic parameters such as K m, V max, and the inhibition type (Figure ).
Different concentrations of butyrylthiocholine iodide were used in the presence of three concentrations of each compound. Lineweaver–Burk plots were constructed by plotting the reciprocal of reaction velocity (1/V) against the reciprocal of substrate concentration (1/[S]). Based on these plots, the inhibition types were determined. The inhibition constant (K i) was calculated using the following equation (eq ). 2 slope=Km/Vmax×(1+[I]/Ki)

T1 sequence (P06276 29-602): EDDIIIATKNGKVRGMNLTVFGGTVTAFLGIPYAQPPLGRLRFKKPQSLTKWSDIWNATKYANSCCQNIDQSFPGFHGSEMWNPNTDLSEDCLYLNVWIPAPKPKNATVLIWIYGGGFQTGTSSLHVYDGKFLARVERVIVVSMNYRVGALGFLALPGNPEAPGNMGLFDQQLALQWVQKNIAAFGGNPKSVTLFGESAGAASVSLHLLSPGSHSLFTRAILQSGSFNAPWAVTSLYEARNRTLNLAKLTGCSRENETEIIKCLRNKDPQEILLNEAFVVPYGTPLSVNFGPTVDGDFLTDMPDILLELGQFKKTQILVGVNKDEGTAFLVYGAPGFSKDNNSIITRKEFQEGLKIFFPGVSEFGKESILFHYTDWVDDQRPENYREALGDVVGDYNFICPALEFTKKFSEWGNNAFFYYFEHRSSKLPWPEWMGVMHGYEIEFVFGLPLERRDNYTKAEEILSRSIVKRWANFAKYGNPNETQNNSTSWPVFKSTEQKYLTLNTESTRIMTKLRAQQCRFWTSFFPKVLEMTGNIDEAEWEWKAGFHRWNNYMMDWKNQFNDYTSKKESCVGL

Molecule `Cc1ccc(S(=O)(=O)Oc2ccc(/C=N/NC(N)=O)cc2)cc1` [Compound 6, 4-[(E)-(2-Carbamoylhydrazinylidene)methyl]phenyl 4-Methylbenzene-1-sulfonate] showed an IC50 in test [1] of 178 µM.

Consider `NC(=O)N/N=C/c1ccc(OS(=O)(=O)c2ccc(Br)cc2)cc1` [Compound 4, 4-[(E)-(2-Carbamoylhydrazinylidene)methyl]phenyl 4-Bromobenzene-1-sulfonate], for which, in test [1], the IC50 is 177 µM.

`NC(=O)N/N=C/c1ccc(OS(=O)(=O)c2ccc(Cl)cc2)cc1` [Compound 3, 4-[(E)-(2-carbamoylhydrazinylidene)methyl]phenyl 4-Chlorobenzene-1-sulfonate] had an IC50 in test [1] of 141 µM.

`NC(=O)N/N=C/c1ccc(OS(=O)(=O)c2cc(C(F)(F)F)cc(C(F)(F)F)c2)cc1` [Compound 11, 4-[(E)-(2-Carbamoylhydrazinylidene)methyl]phenyl 3,5-Bis(trifluoromethyl)benzene-1-sulfonate]: in test [1], the “BChE IC50” value is listed as “stronger inhibition than the reference drug pyridostigmine bromide”; the IC50 is < 130 µM and 114 µM.

As for `NC(=O)N/N=C/c1ccc(OS(=O)(=O)c2ccc(-c3ccccc3)cc2)cc1` [Compound 16, 4-[(E)-(2-Carbamoylhydrazinylidene)methyl]phenyl [1,1′-Biphenyl]-4-sulfonate], in test [1], the “BChE IC50” value is reported as “stronger inhibition than the reference drug pyridostigmine bromide”; the IC50 was < 130 µM and 112 µM.

As to `NC(=O)N/N=C/c1ccc(OS(=O)(=O)c2cccc(OC(F)(F)F)c2)cc1` [Compound 13, 4-[(E)-(2-Carbamoylhydrazinylidene)methyl]phenyl 3-(Trifluoromethoxy)benzene-1-sulfonate], in test [1], the “BChE IC50” value is given as “stronger inhibition than the reference drug pyridostigmine bromide”; the IC50 was < 130 µM and 116 µM.

Take `NC(=O)N/N=C/c1ccc(OS(=O)(=O)c2cccc3ccccc23)cc1` [Compound 17, 4-[(E)-(2-Carbamoylhydrazinylidene)methyl]phenyl Naphthalene-1-sulfonate]: in test [1], the “BChE IC50” value is reported as “stronger inhibition than the reference drug pyridostigmine bromide”; the IC50 is 77 µM and < 130 µM. For the same molecule, in test [2], the inhibition type result is recorded as “reversible competitive inhibitors” and the Ki was found to be 9.08 ± 3.51 µM.

Regarding `NC(=O)N/N=C/c1ccc(OS(=O)(=O)c2ccc(I)cc2)cc1` [Compound 5, 4-[(E)-(2-Carbamoylhydrazinylidene)methyl]phenyl 4-Iodobenzene-1-sulfonate], the midpoint of inhibition in test [1], the IC50, lay at 173 µM.

In turn, `NC(=O)N/N=C/c1ccc(OS(=O)(=O)c2cccc(C(F)(F)F)c2)cc1` [Compound 9, 4-[(E)-(2-Carbamoylhydrazinylidene)methyl]phenyl-3-(trifluoromethyl)benzene-1-sulfonate] yielded an IC50 in test [1] of 147 µM.

As to `NC(=O)N/N=C/c1ccc(OS(=O)(=O)c2ccccc2OC(F)(F)F)cc1` [Compound 12, 4-[(E)-(2-Carbamoylhydrazinylidene)methyl]phenyl 2-(Trifluoromethoxy)benzene-1-sulfonate], in test [1], the “BChE IC50” value is given as “stronger inhibition than the reference drug pyridostigmine bromide”; the IC50 is 61.9 µM and < 130 µM. For the same molecule, in test [2], the inhibition type result is “reversible competitive inhibitors” and the Ki was 11.9 ± 3.31 µM.

Take `NC(=O)N/N=C/c1ccc(OS(=O)(=O)c2ccc([N+](=O)[O-])cc2)cc1` [Compound 15, 4-[(E)-(2-Carbamoylhydrazinylidene)methyl]phenyl 4-Nitrobenzene-1-sulfonate]: the midpoint of inhibition in test [1], the IC50, lay at 347 µM.

Molecule `NC(=O)N/N=C/c1ccc(OS(=O)(=O)c2ccccc2)cc1` [Compound 1, 4-[(E)-(2-Carbamoylhydrazinylidene)methyl]phenyl Benzenesulfonate] yielded an IC50 in test [1] of 139 µM.

As to `NC(=O)N/N=C/c1ccc(OS(=O)(=O)c2ccc3ccccc3c2)cc1` [Compound 18, 4-[(E)-(2-Carbamoylhydrazinylidene)methyl]phenyl Naphthalene-2-sulfonate], in test [1], the “BChE IC50” value was “stronger inhibition than the reference drug pyridostigmine bromide”; the IC50 was 93.7 µM and < 130 µM. Also, in test [2], the inhibition type entry is listed as “reversible competitive inhibitors” and the Ki was determined as 5.49 ± 0.33 µM.

Consider `NC(=O)N/N=C/c1ccc(OS(=O)(=O)c2ccc(F)cc2)cc1` [Compound 2, 4-[(E)-(2-Carbamoylhydrazinylidene)methyl]phenyl 4-Fluorobenzene-1-sulfonate], for which the midpoint of inhibition in test [1], the IC50, lay at 161 µM.

With `NC(=O)N/N=C/c1ccc(OS(=O)(=O)c2ccc(OC(F)(F)F)cc2)cc1` [Compound 14, 4-[(E)-(2-Carbamoylhydrazinylidene)methyl]phenyl 4-(Trifluoromethoxy)benzene-1-sulfonate], in test [1], the “BChE IC50” value is on record as “stronger inhibition than the reference drug pyridostigmine bromide”; the IC50 was < 130 µM and 130 µM.

The molecule `NC(=O)N/N=C/c1ccc(OS(=O)(=O)c2ccccc2C(F)(F)F)cc1` [Compound 8, 4-[(E)-(2-Carbamoylhydrazinylidene)methyl]phenyl 2-(Trifluoromethyl)benzene-1-sulfonate] displayed a half-inhibitory concentration (IC50) in test [1] of 172 µM.

`COc1ccc(S(=O)(=O)Oc2ccc(/C=N/NC(N)=O)cc2)cc1` [Compound 7, 4-[(E)-(2-Carbamoylhydrazinylidene)methyl]phenyl 4-Methoxybenzene-1-sulfonate] had an IC50 in test [1] of 136 µM.

Regarding `NC(=O)N/N=C/c1ccc(OS(=O)(=O)c2ccc(C(F)(F)F)cc2)cc1` [Compound 10, 4-[(E)-(2-Carbamoylhydrazinylidene)methyl]phenyl-4-(trifluoromethyl)benzene-1-sulfonate], the IC50 in test [1] was determined as 139 µM.
